Literature values in patent US20130149346A1, “DABIGATRAN ETEXILATE-CONTAINING PHARMACEUTICAL COMPOSITION” (ratiopharm GmbH Graf-Arco-Strasse 3, priority 2010, published 2013).

Conditions: in the acidic environment

CCCCCCOC(=O)NC(=N)c1ccc(NCc2nc3cc(C(=O)N(CCC(=O)OCC)c4ccccn4)ccc3n2C)cc1 [dabigatran etexilate, 3-[(2-{[4-(hexyloxycarbonylamino-imino-methyl)-phenylamino]-methyl}-1-methyl-1H-benzimidazole-5-carbonyl)-pyridine-2-yl-amino]-propionic acid ethyl ester]
pH-dependent solubility: greatly increased
